Measurements taken from BindingDB's records for PubMed 9536032 (Sibia Neurosciences, 1998).
“And” between values parts separate entries of the source, which are not always exact repeats. Identical values can stand only once.

Columns and labels:
[1] = molecular target: Glutamate receptor 3 (Homo sapiens, UniProt P42263)
[2] = molecular target: Glutamate receptor 3 (Rattus norvegicus, UniProt P19492)
Sequence of Glutamate receptor 3 (Rattus norvegicus, UniProt P19492) (P19492 whole entry): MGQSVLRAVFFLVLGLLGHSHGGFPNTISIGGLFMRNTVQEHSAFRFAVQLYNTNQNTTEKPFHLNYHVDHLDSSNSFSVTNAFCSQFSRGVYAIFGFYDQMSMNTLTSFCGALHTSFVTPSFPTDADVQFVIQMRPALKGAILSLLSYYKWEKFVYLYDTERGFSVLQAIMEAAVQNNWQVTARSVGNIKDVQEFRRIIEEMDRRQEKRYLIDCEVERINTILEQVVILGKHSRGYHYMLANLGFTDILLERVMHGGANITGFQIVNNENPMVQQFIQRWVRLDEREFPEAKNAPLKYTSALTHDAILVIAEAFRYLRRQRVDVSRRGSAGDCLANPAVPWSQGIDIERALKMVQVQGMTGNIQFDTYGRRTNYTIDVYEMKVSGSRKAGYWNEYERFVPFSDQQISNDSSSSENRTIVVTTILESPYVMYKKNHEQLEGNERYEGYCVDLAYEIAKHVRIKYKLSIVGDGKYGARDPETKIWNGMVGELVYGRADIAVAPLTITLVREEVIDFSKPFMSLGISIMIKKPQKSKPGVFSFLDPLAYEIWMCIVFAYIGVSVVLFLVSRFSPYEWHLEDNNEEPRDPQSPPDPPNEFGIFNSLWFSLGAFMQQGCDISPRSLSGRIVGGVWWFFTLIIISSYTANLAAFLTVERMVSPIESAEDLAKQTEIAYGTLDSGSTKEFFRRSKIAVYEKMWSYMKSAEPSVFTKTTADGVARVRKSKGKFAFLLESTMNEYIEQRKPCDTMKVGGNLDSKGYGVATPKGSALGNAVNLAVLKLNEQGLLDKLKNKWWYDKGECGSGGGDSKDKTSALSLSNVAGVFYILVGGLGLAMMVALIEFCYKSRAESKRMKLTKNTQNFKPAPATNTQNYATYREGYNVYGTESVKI

Sequence of Glutamate receptor 3 (Homo sapiens, UniProt P42263) (P42263 whole entry): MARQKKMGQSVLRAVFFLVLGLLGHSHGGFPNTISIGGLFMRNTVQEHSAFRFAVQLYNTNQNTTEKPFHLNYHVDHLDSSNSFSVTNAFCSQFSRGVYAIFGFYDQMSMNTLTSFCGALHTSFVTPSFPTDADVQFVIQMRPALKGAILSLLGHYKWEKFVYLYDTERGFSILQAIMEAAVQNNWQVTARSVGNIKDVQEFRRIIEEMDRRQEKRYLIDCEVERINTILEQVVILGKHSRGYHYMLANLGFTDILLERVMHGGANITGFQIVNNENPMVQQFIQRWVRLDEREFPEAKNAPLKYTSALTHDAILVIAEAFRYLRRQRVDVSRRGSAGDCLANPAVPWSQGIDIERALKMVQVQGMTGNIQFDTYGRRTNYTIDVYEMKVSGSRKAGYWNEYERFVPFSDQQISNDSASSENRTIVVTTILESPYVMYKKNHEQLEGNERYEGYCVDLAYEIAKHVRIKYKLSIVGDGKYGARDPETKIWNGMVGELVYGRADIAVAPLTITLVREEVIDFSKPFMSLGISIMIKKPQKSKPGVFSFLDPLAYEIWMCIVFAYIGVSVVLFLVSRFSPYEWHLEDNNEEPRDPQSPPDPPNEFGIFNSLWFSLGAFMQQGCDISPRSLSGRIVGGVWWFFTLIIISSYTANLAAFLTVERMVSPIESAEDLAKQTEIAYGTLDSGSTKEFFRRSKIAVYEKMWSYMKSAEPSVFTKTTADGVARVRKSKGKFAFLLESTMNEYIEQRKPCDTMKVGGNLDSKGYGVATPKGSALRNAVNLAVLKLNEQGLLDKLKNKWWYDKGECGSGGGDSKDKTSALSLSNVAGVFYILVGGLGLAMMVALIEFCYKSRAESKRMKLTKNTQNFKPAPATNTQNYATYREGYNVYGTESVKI

Row | SMILES | Ki [1] | Ki [2]
1 | O=C1N=c2cc(N(O)O)c(-n3ccnc3)cc2=NC1=O [CAS_3035216] | 630 nM and 2450 nM and 1960 nM | 407 nM
2 | C/C(=C\C=C\[C@@H](C)C(=O)O)[C@H]1CN[C@H](C(=O)O)[C@H]1CC(=O)O | 2770 nM and 4590 nM | 3540 nM
3 | N#Cc1cc2nc(O)c(O)nc2cc1[N+](=O)[O-] [7-Cyano-3-hydroxy-6-nitro-quinoxalin-2-ol anion] | – | 470 nM
4 | CN1Cc2c(S(=O)(=O)N(C)C)cc3c(c2C1)NC(=O)C3N=O (centres undefined) | 1430 nM and > 10000 nM and 8450 nM | 782 nM
5 | CC(C)[C@H](NC(=O)[C@H](CCCCN)NC(=O)[C@@H](Cc1c[nH]c2ccccc12)NC(=O)[C@H](Cc1ccc(O)cc1)NC(=O)[C@H](CS)NC(=O)[C@H](N)Cc1ccc2ccccc2c1)C(=O)N[C@@H](CS)C(=O)N[C@@H](Cc1ccc2ccccc2c1)C(N)=O [Dnal,Cys,Tyr,DTrp,Lys,Val,Cys,Nal-nh2] | 494 nM | –
6 | NC(CCC(=O)NCS(=O)(=O)O)C(=O)O (centres undefined) [CAS_90237-02-8] | > 10000 nM | > 10000 nM
7 | CC1=NN=C(c2ccc(N)cc2)c2cc3c(cc2C1)OCO3 [GYKI-52466] | > 10000 nM | > 10000 nM
8 | O=C1N=c2c3c(ccc2=C1NO)C([N+](=O)[O-])CCC3 (centres undefined) [NSC_5311098] | > 10000 nM | > 10000 nM
9 | O=C1N=c2cc([N+](=O)[O-])c([N+](=O)[O-])cc2=NC1=O [NSC_3140] | 2090 nM and 1660 nM | –
10 | C=C(C)[C@H]1CN[C@H](C(=O)O)[C@H]1CC(=O)O [Digensaeure] | 2630 nM and 8050 nM | –
11 | N[C@@H](Cn1cc(F)c(=O)[nH]c1=O)C(=O)O [(S)-5-Fluorowillardiine] | – | 18 nM
12 | Cc1onc(OCC(=O)O)c1CC(N)C(=O)O (centres undefined) [2-Amino-3-(3-carboxymethoxy-5-methyl-isoxazol-4-yl)-propionic acid(AMOA)] | > 10000 nM | > 10000 nM
